Results taken from patent US12653191B2, “Active compound combinations” (Bayer Aktiengesellschaft, priority 2020, dated 2026).
“And” between values parts separate entries of the source, which are not always exact repeats. Equal entries are not always repeated.

Experiments:
Assay type in all cases: cell-based
[1] = test system: Cercospora beticola; assay: in vitro-Test with fungal microorganisms, Method B (tables C11-C20); conditions: single compound
Procedure: (§1) Example: In Vitro-Test with Fungal Microorganisms
(§2) Wells of 96-well microtiter plates are filled with 30 μl of a preparation of test compound or compound combination in methanol+emulsifier alkylaryl-polyglycol-ether. Thereafter, the solvent is evaporated in a hood. At the next step, 200 μl of liquid growth medium is given, that has been amended with an appropriate concentration of spores or mycelium suspension of the test fungus.
(§3) With the aid of a photometer, the extinction in all wells is measured at the wavelength of 600 nm.
(§4) The microtiter plates are incubated for 3 to 7 days at 20° C. and 85% relative humidity. After the incubation inhibition of growth is determined photometrically. Efficacy is calculated in relation to the untreated control, 0% efficacy means fungal growth as high as in untreated control while 100% efficacy means no fungal growth is measured.
(§5) The data in tables A1 to A12, B1 to B14, C1 to C10, D1 to D8, E1 to E8, F1 to F11, G1 to G4, H1 to H4 and I1 to I5 were collected according to Method A. The data in tables A13 to A22, B15 to B18, C11 to C20, E9 to E16, F12 to F15, G5 to G15, H5 to H8, I6 to I11 and J1 to J11 were collected according to Method B.

[2] = test system: Cordana musae; assay: in vitro-Test with fungal microorganisms, Method B (tables E9-E16); conditions: single active
Procedure: as §1, §2, §3, §4, §5

[3] = test system: Colletotrichum lindemuthianum; assay: in vitro-Test with fungal microorganisms, Method A (tables D1-D8)
Procedure: as §1
as §2, with “10” for “30”, “100” for “200”, “potato dextrose” for “growth”, “given into each well,” for “given,”
(§6) With the aid of a photometer, the extinction in all wells is measured at the wavelength of 620 nm.
as §4, with “incubated” for “incubated for 3 to 7 days”, “The” for “After the incubation”, “again photometrically 3-5 days after the application.” for “photometrically.”
as §5

[4] = test system: Diaporthe citri; assay: in vitro-Test with fungal microorganisms, Method A (tables F1-F11)
Procedure: as §1
as §2, with “10” for “30”, “100” for “200”, “potato dextrose” for “growth”, “given into each well,” for “given,”
as §6
as §4, with “incubated” for “incubated for 3 to 7 days”, “The” for “After the incubation”, “again photometrically 3-5 days after the application.” for “photometrically.”
as §5

[5] = test system: Botrytis cinerea; assay: in vitro-Test with fungal microorganisms, Method A (tables B1-B14); conditions: alone
Procedure: as §1
as §2, with “10” for “30”, “100” for “200”, “potato dextrose” for “growth”, “given into each well,” for “given,”
as §6
as §4, with “incubated” for “incubated for 3 to 7 days”, “The” for “After the incubation”, “again photometrically 3-5 days after the application.” for “photometrically.”
as §5

[6] = test system: Fusarium culmorum; assay: in vitro-Test with fungal microorganisms, Method B (tables G5-G15)
Procedure: as §1, §2, §3, §4, §5

[7] = test system: Colletotrichum coccodes; assay: in vitro-Test with fungal microorganisms, Method B (tables J1-J11)
Procedure: as §1, §2, §3, §4, §5

[8] = test system: Alternaria alternata; assay: in vitro-Test with fungal microorganisms, Method B (tables A13-A22)
Procedure: as §1, §2, §3, §4, §5

SMILES: Fc1ccc(Oc2ccnc3cc(Cl)cc(Cl)c23)cc1 [(13.005) quinoxifen]
- Efficacy % ([1]; 0.08 ppm): 3%

SMILES: CCO[PH](=O)[O-].CCO[PH](=O)[O-].CCO[PH](=O)[O-].[Al+3] [(15.012) fosetyl-al]
- Efficacy ([2]; 0.8 ppm): 0%

SMILES: CCO[PH](=O)[O-].CCO[PH](=O)[O-].CCO[PH](=O)[O-].[Al+3] [(15.012) fosetyl-aluminium, fosetyl-aluminium]
- Efficacy % ([3]; mixing partner alone, 4.0 ppm): 0%
- Efficacy % ([3]; mixing partner alone, 20.0 ppm): 8%
- Efficacy % ([3]; mixing partner alone, 100.0 ppm): 70%
- Efficacy % ([3]; single active at 0.8 ppm): 0%
- Efficacy % ([3]; single active at 4.0 ppm): 0%
- Efficacy % ([3]; single active at 100.0 ppm): 39% and 58%
- Efficacy ([4]; Table F11, 0.8 ppm alone): 23%
- Efficacy ([4]; Table F11, 4.0 ppm alone): 0%
- Efficacy ([4]; Table F11, 20.0 ppm alone): 0%
- Efficacy ([4]; Table F11, 100.0 ppm alone): 0%
- Efficacy ([4]; applied alone, 0.8 ppm): 0%
- Efficacy ([4]; applied alone, 4.0 ppm): 23%
- Efficacy ([4]; applied alone, 100.0 ppm): 30%

SMILES: CCO[PH](=O)[O-].CCO[PH](=O)[O-].CCO[PH](=O)[O-].[Al+3] [(15.012) fosetylaluminium]
- Efficacy % ([5]; 0.8 ppm): 0%
- Efficacy % ([5]; 4.0 ppm): 13%
- Efficacy % ([5]; 100.0 ppm): 1%

SMILES: CS(=O)(=O)Oc1cccc(Cl)c1C1CC(c2csc(C3CCN(C(=O)Cn4nc(C(F)F)cc4C(F)F)CC3)n2)=NO1 (stereo not shown) [(15.043) fluoxapiprolin, fluoxa-piprolin]
- Efficacy % ([1]; 0.8 ppm): 0%
- Efficacy % ([1]; 4 ppm): 3% and 0%
- Efficacy % ([1]; 20 ppm): 0%
- Efficacy ([2]; 20 ppm): 0%
- Efficacy ([6]; single active compound, 0.8 ppm): 13%
- Efficacy ([6]; single active compound, 4 ppm): 14%
- Efficacy % ([7]; 0.8 ppm): 0%
- Efficacy % ([7]; 20 ppm): 0%
- Efficacy % ([7]; single active compound at 4 ppm): 0% and 2%

SMILES: CCO[PH](=O)O [fosetylal]
- Efficacy ([8]; 4 ppm): 0%
- Efficacy ([8]; 20 ppm): 4%
- Efficacy ([8]; 100 ppm): 8%
- Efficacy ([8]; single compound, 0.8 ppm): 0%
- Efficacy ([8]; single compound, 4 ppm): 2%
- Efficacy ([6]; 0.8 ppm, alone): 11%

SMILES: CCCN(CC)CC1COC2(CCC(C(C)(C)C)CC2)O1 (stereo not shown) [spiroxamin]
- Efficacy ([8]; single compound, 0.8 ppm): 3%
- Efficacy ([8]; single compound, 4 ppm): 15%
- Efficacy ([8]; single compound, 20 ppm): 15%
- Efficacy ([6]; 0.8 ppm, alone): 3%
